Test results: patent publication US20250145665A1, “MACROCYCLIC PEPTIDES USEFUL AS MODULATORS OF TNF ALPHA” (Bristol-Myers Squibb Company, priority 2023, published 2025)
Starred links: 1 amine or outer side, 2 acyl side, 3 side chain; linkers in the order of their positions; H or OH if unused. Positions of bridges follow the written chain, without caps; N, C: chain ends. Non-standard residues stand in square brackets, D forms with d. Residues, ends and D or L forms follow the SMILES beside them. X78 = O=C(Nc1ccc(-c2ccc(C[C@H](N[*:1])C(=O)[*:2])cc2)cc1)c1n[nH]c2ccccc12; X5 = Cn1nc(C(=O)Nc2ccc(-c3ccc(C[C@H](N[*:1])C(=O)[*:2])cc3)cc2)c2ccccc21; Bip(4'-NHAc) = CC(=O)Nc1ccc(-c2ccc(C[C@H](N)C(=O)O)cc2)cc1; Phe(4-(4-pyridyl)) = N[C@@H](Cc1ccc(-c2ccncc2)cc1)C(=O)O; Ala(morpholin-4-yl) = N[C@@H](CN1CCOCC1)C(=O)O; Bip = N[C@@H](Cc1ccc(-c2ccccc2)cc1)C(=O)O; 2Pal = N[C@@H](Cc1ccccn1)C(=O)O; 3Pal = N[C@@H](Cc1cccnc1)C(=O)O; Chg = N[C@H](C(=O)O)C1CCCCC1; Aze = O=C(O)[C@@H]1CCN1; Sar = CNCC(=O)O

Target: TNFα (Homo sapiens, UniProt P01375)
Test: TNF-Induced HEK-Blue Assay
Format: cell-based
Conditions: HEK-Blue-CD40L cells, NF-kB-driven secreted alkaline phosphatase reporter; TNFα 0.5 ng/ml; 18 h; read-out: TNF induced HEK-Blue assay IC50 value
Description: TNFα (final concentration 0.5 ng/ml) or CD40L (final concentration 30 ng/ml) in assay buffer [DMEM, 4.5 g/l glucose (Gibco, Cat. 21063-029), 10% FBS (Sigma, F4135), 1% Penicillin-Streptomycin (Gibco, Cat. 15140-122), 1% Anti-Anti (Gibco, Cat. 15240-112) and 2 mM L-glutamine (Gibco, Cat. 25030-081)] was then added to the assay plate. After a 30 minute pre-incubation at 37° C. and 5% CO2, HEK-Blue™-CD40L cells (INVIVOGEN, Cat. Code hkb-cd40) containing a NF-kB-driven secreted alkaline phosphatase reporter gene were seeded into the assay plate at a density of 20,000 cells per well. This plate was then incubated for 18 h at 37° C. and 5% CO2. Secreted alkaline phosphatase expression was measured using QUANTI-Blue™ (INVIVOGEN, Cat. Code rep-qb1) according to manufacturer's specifications and the assay plate was read on a PerkinElmer Envision at 620 nm.
IC50 values were determined after correcting for background [(sample read-mean of low control)/(mean of high control-mean of low control)] where by the low control is DMSO without stimulation and high control is DMSO with stimulation.

Sequence of TNFα (P01375 77-233 limits assumed): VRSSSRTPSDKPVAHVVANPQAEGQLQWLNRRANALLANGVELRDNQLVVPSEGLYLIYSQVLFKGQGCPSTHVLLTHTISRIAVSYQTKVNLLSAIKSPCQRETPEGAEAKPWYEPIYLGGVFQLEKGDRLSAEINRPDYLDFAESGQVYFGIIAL

IC50 | SMILES
< 50 nM | CC(C)C[C@@H]1NC(=O)[C@H](CCCNC(=N)N)NC(=O)[C@H](C(C)C)NC(=O)[C@@H]2CCCN2C(=O)[C@H](C(C)C)NC(=O)[C@@H](CCCNC(=N)N)NC(=O)[C@H](CC(=O)O)NC(=O)[C@@H]2CCCN2C(=O)CN(C)C(=O)[C@H](Cc2ccc(-c3ccc(NC(=O)c4n[nH]c5ccccc45)cc3)cc2)NC(=O)[C@H](Cc2ccc(-c3ccccc3)cc2)NC(=O)[C@H](CN2CCOCC2)NC(=O)CSC[C@@H](C(=O)NCC(N)=O)NC1=O [Example 343] ({CH2CO}-[Ala(morpholin-4-yl)][Bip][X78][Sar]PD[dR]VPVRLCG-NH2; thioether N-13)
< 50 nM | CC(=O)Nc1ccc(-c2ccc(C[C@@H]3NC(=O)[C@H](Cc4ccc(-c5ccccc5)cc4)NC(=O)[C@H](CN4CCOCC4)NC(=O)CSC[C@@H](C(=O)NCC(N)=O)NC(=O)[C@H](CC(C)C)NC(=O)[C@H](Cc4cnc[nH]4)NC(=O)[C@H](C(C)C)NC(=O)[C@@H]4CCCN4C(=O)[C@H](C(C)C)NC(=O)[C@@H](CCCNC(=N)N)NC(=O)[C@H](CC(=O)O)NC(=O)[C@H](Cc4ccc(O)cc4)NC(=O)CN(C)C3=O)cc2)cc1 [Example 213] ({CH2CO}-[Ala(morpholin-4-yl)][Bip][Bip(4'-NHAc)][Sar]YD[dR]VPVHLCG-NH2; thioether N-13)
< 50 nM | CC(=O)Nc1ccc(-c2ccc(C[C@@H]3NC(=O)[C@H](Cc4ccc(-c5ccccc5)cc4)NC(=O)[C@H](CN4CCOCC4)NC(=O)CSC[C@@H](C(=O)NCC(N)=O)NC(=O)[C@H](CC(C)C)NC(=O)[C@H](CCCNC(=N)N)NC(=O)[C@H](C4CCCCC4)NC(=O)[C@@H]4CCCN4C(=O)[C@H](C(C)C)NC(=O)[C@@H](CCCNC(=N)N)NC(=O)[C@H](CC(=O)O)NC(=O)[C@H](Cc4ccccn4)NC(=O)CN(C)C3=O)cc2)cc1 [Example 201] ({CH2CO}-[Ala(morpholin-4-yl)][Bip][Bip(4'-NHAc)][Sar][2Pal]D[dR]VP[Chg]RLCG-NH2; thioether N-13)

Second part, the compound before the results:

SMILES | IC50
CC(C)C[C@@H]1NC(=O)[C@H](CCCNC(=N)N)NC(=O)[C@H](C(C)C)NC(=O)[C@@H]2CCCN2C(=O)[C@H](C(C)C)NC(=O)[C@H](CCCNC(=N)N)NC(=O)[C@H](CC(=O)O)NC(=O)[C@@H]2CCCN2C(=O)CN(C)C(=O)[C@H](Cc2ccc(-c3ccccc3)cc2)NC(=O)[C@H](Cc2ccc(-c3ccccc3)cc2)NC(=O)[C@H](Cc2ccccc2)NC(=O)CSC[C@@H](C(=O)NCC(N)=O)NC1=O [Example 1] ({CH2CO}-F[Bip][Bip][Sar]PDRVPVRLCG-NH2; thioether N-13) | 200 to 2000 nM
CC(C)C[C@@H]1NC(=O)[C@H](Cc2ccc(O)cc2)NC(=O)[C@H](C(C)C)NC(=O)[C@@H]2CCN2C(=O)[C@H](C(C)C)NC(=O)[C@H](CCCNC(=N)N)NC(=O)[C@H](CC(=O)O)NC(=O)[C@H](Cc2ccc(O)cc2)NC(=O)CN(C)C(=O)[C@H](Cc2ccc(-c3ccccc3)cc2)NC(=O)[C@H](Cc2ccc(-c3ccccc3)cc2)NC(=O)[C@H](CN2CCOCC2)NC(=O)CSC[C@@H](C(=O)NCC(N)=O)NC1=O [Example 75] ({CH2CO}-[Ala(morpholin-4-yl)][Bip][Bip][Sar]YDRV[Aze]VYLCG-NH2; thioether N-13) | 200 to 2000 nM
CC(C)C[C@@H]1NC(=O)[C@H](CCCNC(=N)N)NC(=O)[C@H](C(C)C)NC(=O)[C@@H]2CCCN2C(=O)[C@H](C(C)C)NC(=O)[C@@H](CCCNC(=N)N)NC(=O)[C@H](CC(=O)O)NC(=O)[C@@H]2CCCN2C(=O)CN(C)C(=O)[C@H](Cc2ccc(-c3ccc(NC(=O)c4nn(C)c5ccccc45)cc3)cc2)NC(=O)[C@H](Cc2ccc(-c3ccccc3)cc2)NC(=O)[C@H](CN2CCOCC2)NC(=O)CSC[C@@H](C(=O)NCC(N)=O)NC1=O [Example 338] ({CH2CO}-[Ala(morpholin-4-yl)][Bip][X5][Sar]PD[dR]VPVRLCG-NH2; thioether N-13) | < 50 nM
CC(C)[C@@H]1NC(=O)[C@H](CCCNC(=N)N)NC(=O)[C@H](C(C)C)NC(=O)[C@@H]2CCCN2C(=O)[C@H](C(C)C)NC(=O)[C@H](CCCNC(=N)N)NC(=O)[C@H](CC(=O)O)NC(=O)[C@@H]2CCCN2C(=O)CN(C)C(=O)[C@H](Cc2ccc(-c3ccccc3)cc2)NC(=O)[C@H](Cc2ccc(-c3ccncc3)cc2)NC(=O)[C@H](CN2CCOCC2)NC(=O)CSC[C@@H](C(=O)NCC(N)=O)NC1=O [Example 87] ({CH2CO}-[Ala(morpholin-4-yl)][Phe(4-(4-pyridyl))][Bip][Sar]PDRVPVRVCG-NH2; thioether N-13) | 50 to 200 nM
CC(C)C[C@@H]1NC(=O)[C@H](Cc2ccc(O)cc2)NC(=O)[C@H](C(C)C)NC(=O)[C@@H]2CCCN2C(=O)[C@H](Cc2cccnc2)NC(=O)[C@@H](CCCNC(=N)N)NC(=O)[C@H](CC(=O)O)NC(=O)[C@@H]2CCCN2C(=O)CN(C)C(=O)[C@H](Cc2ccc(-c3ccccc3)cc2)NC(=O)[C@H](Cc2ccc(-c3ccccc3)cc2)NC(=O)[C@H](CN2CCOCC2)NC(=O)CSC[C@@H](C(=O)NCC(N)=O)NC1=O [Example 119] ({CH2CO}-[Ala(morpholin-4-yl)][Bip][Bip][Sar]PD[dR][3Pal]PVYLCG-NH2; thioether N-13) | 200 to 2000 nM
